Experimental data published in patent publication US8044079B2, “Substituted oxindole derivatives, medicaments containing said derivatives and use thereof” (Abbott GmbH & Co. KG, priority 2005, dated 2011).
pKi: −log10 of the molar value.

Biological target: T1, human vasopressin V1b receptor (Homo sapiens, UniProt P47901)
T1 construct: expressed in transfected cells; host or cells: CHO-K1 (cell line hV1b_3H2_CHO), membrane preparation
T1 sequence (P47901 1-424): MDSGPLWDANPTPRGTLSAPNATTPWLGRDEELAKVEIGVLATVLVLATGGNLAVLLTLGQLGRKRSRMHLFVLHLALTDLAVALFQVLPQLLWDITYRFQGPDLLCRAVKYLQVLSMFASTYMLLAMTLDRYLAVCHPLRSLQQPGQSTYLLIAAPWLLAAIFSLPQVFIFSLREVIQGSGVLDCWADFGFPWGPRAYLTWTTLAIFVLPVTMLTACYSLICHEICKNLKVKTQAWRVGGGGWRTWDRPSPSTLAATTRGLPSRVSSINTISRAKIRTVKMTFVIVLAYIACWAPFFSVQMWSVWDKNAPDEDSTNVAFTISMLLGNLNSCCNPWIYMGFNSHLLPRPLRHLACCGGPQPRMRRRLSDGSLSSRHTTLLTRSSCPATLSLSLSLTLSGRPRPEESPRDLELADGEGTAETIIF
Assay: Vasopressin V1b receptor binding test
Details: membranes of CHO-K1 cells with human V1b receptor, displacement of 1.5 nM 3H-AVP; for compounds with more than one stereogenic center the diastereomer with greater affinity
Method in brief: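 Radioligand displacement on membranes carrying human V1b receptor in 50 mM tris, 10 mM MgCl2, 0.1% BSA, pH 7.4, 2% DMSO final; 60 min at room temperature, nonspecific binding with 1 μM AVP. Free ligand removed by filtration, bound counted by liquid scintillation, Ki from nonlinear regression of triplicates.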

| pKi | SMILES |
| --- | --- |
| 7.00 to 8.00 | COc1ccc(S(=O)(=O)N2C(=O)C(c3cc(CN(C)C)ccc3OC)(N3CCCC3c3nccs3)c3cc(Cl)ccc32)cc1 (stereo not drawn) [Example 117, 5-Chloro-3-(5-dimethylaminomethyl-2-methoxyphenyl)-1-(4-methoxybenzenesulfonyl)-3-(2-thiazol-2-yl-pyrrolidin-1-yl)-1,3-dihydroindol-2-one] |
| 7.00 to 8.00 | COc1ccc(S(=O)(=O)N2C(=O)C(c3cc(CN4CCCC4)ccc3OC)(N3CCCC3c3nccs3)c3cc(Cl)ccc32)cc1 (stereo not drawn) [Example 118, 5-Chloro-1-(4-methoxybenzenesulfonyl)-3-(2-methoxy-5-(pyrrolidin-1-ylmethyl)phenyl)-3-(2-thiazol-2-yl-pyrrolidin-1-yl)-1,3-dihydroindol-2-one] |
| 7.00 to 8.00 | COc1ccc(S(=O)(=O)N2C(=O)C(c3cc(CN4CCNCC4)ccc3OC)(N3CCCC3c3nccs3)c3cc(Cl)ccc32)cc1 (stereo not drawn) [Example 121, 5-Chloro-1-(4-methoxybenzenesulfonyl)-3-(2-methoxy-5-(piperazin-1-ylmethyl)phenyl)-3-(2-thiazol-2-yl-pyrrolidin-1-yl)-1,3-dihydroindol-2-one] |
| 6.00 to 7.00 | COc1ccc(S(=O)(=O)N2C(=O)C(c3cc(CN(C)C)ccc3OC)(N3CCCC3c3ccccn3)c3cc(Cl)ccc32)cc1 (stereo not drawn) [Example 122, 5-Chloro-3-(5-dimethylaminomethyl-2-methoxyphenyl)-1-(4-methoxybenzenesulfonyl)-3-(2-pyridin-2-yl-pyrrolidin-1-yl)-1,3-dihydroindol-2-one] |
| 6.00 to 7.00 | CCCNCc1ccc(OC)c(C2(N3CCCC3c3ccccn3)C(=O)N(S(=O)(=O)c3ccc(OC)cc3)c3ccc(Cl)cc32)c1 (stereo not drawn) [Example 123, 5-Chloro-1-(4-methoxybenzenesulfonyl)-3-(2-methoxy-5-propylaminomethylphenyl)-3-(2-pyridin-2-yl-pyrrolidin-1-yl)-1,3-dihydroindol-2-one] |
| 7.00 to 8.00 | COc1ccc(S(=O)(=O)N2C(=O)C(c3cc(CN4CCN(C)CC4)ccc3OC)(N3CCCC3c3ccccn3)c3cc(Cl)ccc32)cc1 (stereo not drawn) [Example 124, 5-Chloro-1-(4-methoxybenzenesulfonyl)-3-[2-methoxy-5-(4-methylpiperazin-1-ylmethyl)phenyl]-3-(2-pyridin-2-yl-pyrrolidin-1-yl)-1,3-dihydroindol-2-one] |
| 7.00 to 8.00 | COc1ccc(S(=O)(=O)N2C(=O)C(c3cc(CN4CCNC(=O)C4)ccc3OC)(N3CCC[C@H]3c3ncco3)c3cc(Cl)ccc32)cc1 (stereo partly drawn) [Example 125, 5-Chloro-1-(4-methoxybenzenesulfonyl)-3-[2-methoxy-5-(3-oxopiperazin-1-ylmethyl)phenyl]-3-((S)-2-oxazol-2-yl-pyrrolidin-1-yl)-1,3-dihydroindol-2-one] |
| > 8.00 | COc1ccc(S(=O)(=O)N2C(=O)C(c3ccc(CN4CCN(CCO)CC4)cc3OC)(N3CCC[C@H]3c3ncco3)c3cc(Cl)ccc32)cc1 (stereo partly drawn) [Example 127, 5-Chloro-3-{4-[4-(2-hydroxyethyl)piperazin-1-ylmethyl]-2-methoxyphenyl}-1-(4-methoxybenzenesulfonyl)-3-((S)-2-oxazol-2-yl-pyrrolidin-1-yl)-1,3-dihydroindol-2-one] |
| > 8.00 | COc1ccc(S(=O)(=O)N2C(=O)C(N[C@@H](C)c3ncco3)(c3cc(CN4CCN(C)CC4)ccc3OC)c3cc(Cl)ccc32)cc1 (stereo partly drawn) [Example 128, 5-Chloro-1-(4-methoxybenzenesulfonyl)-3-[2-methoxy-5-(4-methylpiperazin-1-ylmethyl)phenyl]-3-((S)-1-oxazol-2-yl-ethylamino)-1,3-dihydroindol-2-one] |
| 7.00 to 8.00 | CNCc1ccc(OC)c(C2(NCc3ncco3)C(=O)N(S(=O)(=O)c3ccc(OC)cc3)c3ccc(Cl)cc32)c1 (stereo not drawn) [Example 129, 5-Chloro-1-(4-methoxybenzenesulfonyl)-3-(2-methoxy-5-methylaminomethylphenyl)-3-[(oxazol-2-ylmethyl)amino]-1,3-dihydroindol-2-one] |
| 7.00 to 8.00 | CCNCc1ccc(C2(N3CCC[C@H]3c3ncco3)C(=O)N(S(=O)(=O)c3ccc(OC)cc3)c3ccc(Cl)cc32)c(OC)c1 (stereo partly drawn) [Example 131, 5-Chloro-3-(4-ethylaminomethyl-2-methoxyphenyl)-1-(4-methoxybenzenesulfonyl)-3-((S)-2-oxazol-2-yl-pyrrolidin-1-yl)-1,3-dihydroindol-2-one] |
| 7.00 to 8.00 | COc1ccc(S(=O)(=O)N2C(=O)C(c3ccc(CNC(C)C)cc3OC)(N3CCC[C@H]3c3ncco3)c3cc(Cl)ccc32)cc1 (stereo partly drawn) [Example 136, 5-Chloro-3-[4-(isopropylaminomethyl)-2-methoxyphenyl]-1-(4-methoxybenzenesulfonyl)-3-((S)-2-oxazol-2-yl-pyrrolidin-1-yl)-1,3-dihydroindol-2-one] |

The next lines start with the molecule.

| SMILES | pKi |
| --- | --- |
| COc1ccc(S(=O)(=O)N2C(=O)C(c3cc(CN4CCN(C)CC4)ccc3OC)(N3CCCC3c3nccs3)c3cc(Cl)ccc32)cc1 (stereo not drawn) [Example 119, 5-Chloro-1-(4-methoxybenzenesulfonyl)-3-[2-methoxy-5-(4-methylpiperazin-1-ylmethyl)phenyl]-3-(2-thiazol-2-yl-pyrrolidin-1-yl)-1,3-dihydroindol-2-one] | 7.00 to 8.00 |
| CNCc1ccc(OC)c(C2(N3CCCC3c3ccccn3)C(=O)N(S(=O)(=O)c3ccc(OC)cc3)c3ccc(Cl)cc32)c1 (stereo not drawn) [Example 120, 5-Chloro-1-(4-methoxybenzenesulfonyl)-3-(2-methoxy-5-methylaminomethylphenyl)-3-(2-pyridin-2-yl-pyrrolidin-1-yl)-1,3-dihydroindol-2-one] | 6.00 to 7.00 |
| COc1ccc(S(=O)(=O)N2C(=O)C(c3cc(CN4CCNCC4)ccc3OC)(N3CCCC3c3ccccn3)c3cc(Cl)ccc32)cc1 (stereo not drawn) [Example 126, 5-Chloro-1-(4-methoxybenzenesulfonyl)-3-(2-methoxy-5-piperazin-1-ylmethylphenyl)-3-(2-pyridin-2-yl-pyrrolidin-1-yl)-1,3-dihydroindol-2-one] | 6.00 to 7.00 |
| COc1ccc(S(=O)(=O)N2C(=O)C(c3cc(CNCC(F)(F)F)ccc3OC)(N3CCC[C@H]3c3ncco3)c3cc(Cl)ccc32)cc1 (stereo partly drawn) [Example 130, 5-Chloro-1-(4-methoxybenzenesulfonyl)-3-{2-methoxy-5-[(2,2,2-trifluoroethylamino)methyl]phenyl}-3-((S)-2-oxazol-2-yl-pyrrolidin-1-yl)-1,3-dihydroindol-2-one] | 7.00 to 8.00 |
| CCCNCc1ccc(OC)c(C2(N3CCCC3c3nccs3)C(=O)N(S(=O)(=O)c3ccc(OC)cc3)c3ccc(Cl)cc32)c1 (stereo not drawn) [Example 132, 5-Chloro-1-(4-methoxybenzenesulfonyl)-3-(2-methoxy-5-propylaminomethylphenyl)-3-(2-thiazol-2-yl-pyrrolidin-1-yl)-1,3-dihydroindol-2-one] | 7.00 to 8.00 |
| COc1ccc(S(=O)(=O)N2C(=O)C(N[C@@H](C)c3ncco3)(c3cc(CN(C)C)ccc3OC)c3cc(Cl)ccc32)cc1 (stereo partly drawn) [Example 133, 5-Chloro-3-(5-dimethylaminomethyl-2-methoxyphenyl)-1-(4-methoxybenzenesulfonyl)-3-((S)-1-oxazol-2-yl-ethylamino)-1,3-dihydroindol-2-one] | 7.00 to 8.00 |
| CCCNCc1ccc(OC)c(C2(N[C@@H](C)c3ncco3)C(=O)N(S(=O)(=O)c3ccc(OC)cc3)c3ccc(Cl)cc32)c1 (stereo partly drawn) [Example 134, 5-Chloro-1-(4-methoxybenzenesulfonyl)-3-(2-methoxy-5-propylaminomethylphenyl)-3-((S)-1-oxazol-2-yl-ethylamino)-1,3-dihydroindol-2-one] | 7.00 to 8.00 |
| COc1ccc(S(=O)(=O)N2C(=O)C(N[C@@H](C)c3ncco3)(c3cc(CN4CCNCC4)ccc3OC)c3cc(Cl)ccc32)cc1 (stereo partly drawn) [Example 135, 5-Chloro-1-(4-methoxybenzenesulfonyl)-3-(2-methoxy-5-(piperazin-1-ylmethyl)phenyl)-3-((S)-1-oxazol-2-yl-ethylamino)-1,3-dihydroindol-2-one] | > 8.00 |
| COc1ccc(S(=O)(=O)N2C(=O)C(c3ccc(CNCCO)cc3OC)(N3CCC[C@H]3c3ncco3)c3cc(Cl)ccc32)cc1 (stereo partly drawn) [Example 137, 5-Chloro-3-{4-[(2-hydroxyethylamino)methyl]-2-methoxyphenyl}-1-(4-methoxybenzenesulfonyl)-3-((S)-2-oxazol-2-yl-pyrrolidin-1-yl)-1,3-dihydroindol-2-one] | 7.00 to 8.00 |
| COc1ccc(S(=O)(=O)N2C(=O)C(c3ccc(CN4CCNC(=O)C4)cc3OC)(N3CCC[C@H]3c3ncco3)c3cc(Cl)ccc32)cc1 (stereo partly drawn) [Example 138, 5-Chloro-1-(4-methoxybenzenesulfonyl)-3-[2-methoxy-4-(3-oxopiperazin-1-ylmethyl)phenyl]-3-((S)-2-oxazol-2-yl-pyrrolidin-1-yl)-1,3-dihydroindol-2-one] | 7.00 to 8.00 |
| COc1ccc(S(=O)(=O)N2C(=O)C(c3cc(CNC(C)(C)C)ccc3OC)(N3CCC[C@H]3c3ncco3)c3cc(Cl)ccc32)cc1 (stereo partly drawn) [Example 139, 5-Chloro-3-[5-(tert-butylaminomethyl)-2-methoxyphenyl]-1-(4-methoxybenzenesulfonyl)-3-((S)-2-oxazol-2-yl-pyrrolidin-1-yl)-1,3-dihydroindol-2-one] | 7.00 to 8.00 |
| COc1ccc(S(=O)(=O)N2C(=O)C(N[C@@H](C)c3ncco3)(c3cc(CNCCO)ccc3OC)c3cc(Cl)ccc32)cc1 (stereo partly drawn) [Example 140, 5-Chloro-3-{5-[(2-hydroxyethylamino)methyl]-2-methoxyphenyl}-1-(4-methoxybenzenesulfonyl)-3-((S)-1-oxazol-2-yl-ethylamino)-1,3-dihydroindol-2-one] | > 8.00 |
